{"source": "patent US20080311578A1", "about": "“System for screening eukaryotic membrane proteins” (Hydra Biosciences, Inc., priority 2004, published 2008)", "type_in_all_cases": "cell-based", "key": {"[1]": {"molecular_target": "T1, rat TrpV1 calcium channel (Rattus norvegicus, UniProt O35433)", "T1 construct": "expressed in transfected cells; host or cells: E. coli (Rosetta-Gami B (DE3) pLysS, Novagen), dual-T7 expression plasmid, co-expressed with aequorin", "T1 sequence (O35433 whole entry)": "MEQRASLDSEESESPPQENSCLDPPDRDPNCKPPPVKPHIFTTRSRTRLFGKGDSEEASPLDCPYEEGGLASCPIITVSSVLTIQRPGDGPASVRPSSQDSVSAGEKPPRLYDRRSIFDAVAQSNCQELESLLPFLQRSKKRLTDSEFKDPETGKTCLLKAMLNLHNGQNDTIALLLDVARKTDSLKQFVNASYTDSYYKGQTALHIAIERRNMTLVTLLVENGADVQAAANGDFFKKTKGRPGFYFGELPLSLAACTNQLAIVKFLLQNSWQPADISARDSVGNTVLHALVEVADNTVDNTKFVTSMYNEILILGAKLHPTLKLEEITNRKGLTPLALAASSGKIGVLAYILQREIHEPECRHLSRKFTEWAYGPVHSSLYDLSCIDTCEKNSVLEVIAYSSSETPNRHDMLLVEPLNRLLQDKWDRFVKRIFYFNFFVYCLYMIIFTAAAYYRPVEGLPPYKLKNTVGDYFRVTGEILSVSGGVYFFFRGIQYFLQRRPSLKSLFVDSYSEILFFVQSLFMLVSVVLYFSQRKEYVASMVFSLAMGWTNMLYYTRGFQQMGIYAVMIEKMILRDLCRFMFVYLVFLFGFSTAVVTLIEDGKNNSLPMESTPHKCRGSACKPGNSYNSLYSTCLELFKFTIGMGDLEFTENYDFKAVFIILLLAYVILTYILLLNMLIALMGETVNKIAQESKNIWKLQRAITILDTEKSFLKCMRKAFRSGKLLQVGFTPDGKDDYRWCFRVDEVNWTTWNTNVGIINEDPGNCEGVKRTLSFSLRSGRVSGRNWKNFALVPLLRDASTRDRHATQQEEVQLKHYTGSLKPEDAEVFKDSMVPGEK", "experiment": "aequorin calcium flux assay in bacterial cells expressing rat TrpV1", "description": "(§1) 1) 0.5-2 mL of an overnight bacteria (already transformed with a nucleic acid construct or composition encoding a eukaryotic Calcium ion channel and an aequorin marker) culture is innoculated into 25 mL of LB-Amp;\n(§2) 2) Bacteria are grown to an OD (optical density) of 0.6;\n(§3) 3) 1 mM IPTG added for 2-hour induction;\n(§4) 4) Bacteria are spun down, resuspended in ½ volume of nominally divalent free ringers and loaded with coelenterazine;\n(§5) 5) Bacteria are rinsed and loaded into 96 well plate ([…]);\n(§6) 6) Plate is put in a plate reader, e.g., a Wallac Victor 3;\n(§7) 7) Plate is shaken for 2 sec then rested for 5 seconds;\n(§8) 8) 10 reads are taken 1 second apart;\n(§9) 9) 5 μL of 20 mM CaCl2 is injected;\n(§10) 10) 50 reads are taken 1 second apart;\n(§11) Note: When a blocker is present, it is added before the plate is put in the reader.\n(§12) A further indicator of the functional activity of the ion channel is whether its activity is sensitive to treatment with agonistic or inhibitory agents. FIG. 5 summarizes experiments conducted to address this issue. […] Furthermore, the calcium-flux mediating activity of the channels is inhibited following addition of the calcium channel inhibitor, lanthanum.\n(§13) The Trp channel blocker ruthenium red inhibits TrpV1 mediated calcium flux in bacterial cells or CHO cells."}, "rat TrpV1": {"molecular_target": "T2, rat TrpV1 (Rattus norvegicus, UniProt O35433)", "T2 construct": "expressed in transfected cells; host or cells: CHO cells", "T2 sequence (O35433 whole entry)": "as above", "experiment": "TrpV1 mediated calcium flux in CHO cells", "details": "FIG. 8", "from_the_text": "as §13"}, "[2]": {"molecular_target": "T3, human CatSper 1 calcium channel (Homo sapiens, UniProt Q8NEC5)", "T3 construct": "expressed in transfected cells; host or cells: E. coli (Rosetta-Gami B (DE3) pLysS, Novagen), modified pET dual-T7 vector, co-expressed with apo-aequorin", "T3 sequence (Q8NEC5 1-780)": "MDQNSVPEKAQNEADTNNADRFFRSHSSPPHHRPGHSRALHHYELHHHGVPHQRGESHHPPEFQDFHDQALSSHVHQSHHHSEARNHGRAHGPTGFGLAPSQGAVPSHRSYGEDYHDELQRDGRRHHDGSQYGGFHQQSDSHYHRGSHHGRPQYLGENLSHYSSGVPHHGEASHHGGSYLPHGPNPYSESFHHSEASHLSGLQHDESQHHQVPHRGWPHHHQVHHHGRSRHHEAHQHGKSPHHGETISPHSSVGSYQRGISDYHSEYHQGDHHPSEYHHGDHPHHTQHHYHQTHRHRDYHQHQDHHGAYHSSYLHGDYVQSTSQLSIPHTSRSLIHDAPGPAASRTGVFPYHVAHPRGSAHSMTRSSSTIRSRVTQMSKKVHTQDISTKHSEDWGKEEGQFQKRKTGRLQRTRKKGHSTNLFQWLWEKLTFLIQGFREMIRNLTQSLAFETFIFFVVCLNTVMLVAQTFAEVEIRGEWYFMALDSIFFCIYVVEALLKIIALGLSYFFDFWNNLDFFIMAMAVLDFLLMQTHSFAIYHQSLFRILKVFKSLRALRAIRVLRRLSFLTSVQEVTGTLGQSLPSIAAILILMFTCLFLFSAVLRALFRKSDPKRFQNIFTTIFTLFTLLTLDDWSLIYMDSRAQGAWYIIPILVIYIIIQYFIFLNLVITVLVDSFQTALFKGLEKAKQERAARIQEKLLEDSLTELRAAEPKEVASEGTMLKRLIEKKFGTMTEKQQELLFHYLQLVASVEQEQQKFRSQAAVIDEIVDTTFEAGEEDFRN", "experiment": "aequorin calcium flux assay in bacterial cells expressing hCatSper1", "details": "CatSper1 expressed in bacterial cells, FIG. 5", "description": "as §1, §2, §3, §4, §5, §6, §7, §8, §9, §10, §11, §12"}}, "data": [{"compound": "N.N.N.N.N.N.N.N.N.N.N.N.N.N.[Cl-].[Cl-].[Cl-].[Cl-].[Cl-].[Cl-].[O-2].[O-2].[Ru+3].[Ru+3].[Ru+4]", "note": "[ruthenium red]", "values": [{"measurement": "potency (IC50) in bacterial cells compared with CHO cells", "setting": "[1]; bacterial cells vs CHO cells, FIG. 8", "result": "somewhat less potent"}, {"measurement": "inhibition of TrpV1 mediated calcium flux", "setting": "[1]; bacterial cells, FIG. 8", "result": "inhibits"}, {"measurement": "calculated Hill slope values, CHO cells vs bacterial cells", "setting": "[1]; comparison between the CHO cells and the bacterial cells, FIG. 8", "result": "not significantly different"}, {"measurement": "inhibition of TrpV1 mediated calcium flux", "setting": "rat TrpV1", "result": "inhibits"}]}, {"compound": "[La]", "note": "[lanthanum]", "values": [{"measurement": "inhibition of calcium-flux mediating activity of the channel", "setting": "[2]", "result": "inhibited in a dose dependent fashion"}, {"measurement": "inhibition of calcium-flux mediating activity of the channel", "setting": "[1]; TrpV1 expressed in bacterial cells, FIG. 5", "result": "inhibited in a dose dependent fashion"}]}]}
